In brackets after ≈: the same amount, converted by molar mass. Structures can show the parent of a compound that is named as a salt.
Tests used:
[1] = test system: Staphylococcus aureus 887; assay: Antibacterial activity in vitro (MIC) against Staphylococcus aureus 887; type: cell-based; details: read-out: MIC S. aureus 887
Protocol: (§1) The minimum inhibitory concentration in vitro (MIC in μg/ml) of a compound of formula I against Citrobacter freundii 1982 and Staphylococcus aureus 887 is measured and compiled in Table 2.

[2] = test system: Citrobacter freundii 1982; assay: Antibacterial activity in vitro (MIC) against Citrobacter freundii 1982; type: cell-based; details: read-out: MIC C. freundii 1982
Protocol: as §1

Compound	MIC [1] [µg/mL]	MIC [2] [µg/mL]
CC(=O)N1C[C@H]2CC(/C=C3\CCN(CC(C)C)C3=O)=C(C(=O)O)N3C(=O)[C@@H]1[C@@H]23 [Example 28, (E)-(1aS,3aR,6bR)-2-Acetyl-1-oxo-5-[2-oxo-1-isobutyl-pyrrolidin-3-ylidenemethyl]-1a,2,3,3a,4,6b-hexahydro-1H-2,6a-diaza-cyclobut[cd]indene-6-carboxylic acid sodium salt (1:1)]	8	2
CCOC(=O)N1CCC(N2CC/C(=C\C3=C(C(=O)O)N4C(=O)[C@@H]5[C@H]4[C@H](C3)CN5C(C)=O)C2=O)CC1 [Example 32, (E)-(1aS,3aR,6bR)-2-Acetyl-1-oxo-5-[1-(1-ethoxycarbonyl-piperidin-4-yl)-2-oxo-pyrrolidin-3-ylidenemethyl]-1a,2,3,3a,4,6b-hexahydro-1H-2,6a-diaza-cyclobut[cd]indene-6-carboxylic acid sodium salt (1:1)]	8	62
O=C(O)C1=C(/C=C2\CCN(Cc3cccs3)C2=O)C[C@@H]2CN[C@@H]3C(=O)N1[C@H]23 [Example 16, (E)-(1aS,3aR,6bR)-1-Oxo-5-[2-oxo-1-(thiophen-2-ylmethyl)-pyrrolidin-3-ylidenemethyl]-1a,2,3,3a,4,6b-hexahydro-1H-2,6a-diaza-cyclobut[cd]indene-6-carboxylic acid trifluoroacetate (1:0.75)]	8	16
CC(=O)N1C[C@H]2CC(/C=C/c3ccc4ccccc4n3)=C(C(=O)O)N3C(=O)[C@@H]1[C@@H]23 [Example 61, (E)-(1aS,3aR,6bR)-2-Acetyl-1-oxo-5-(2-quinolin-2-yl-vinyl)-1a,2,3,3a,4,6b-hexahydro-1H-2,6a-diaza-cyclobut[cd]indene-6-carboxylic acid sodium salt (1:1)]	64	64
O=C(O)C1=C(/C=C2\CCN(c3ccccc3)C2=O)C[C@@H]2CN(C(=O)C(F)(F)F)[C@@H]3C(=O)N1[C@H]23 [Example 37, (E)-(1aS,3aR,6bR)-1-Oxo-5-[2-oxo-1-phenyl-pyrrolidin-3-ylidenemethyl]-2-trifluoroacetyl-1a,2,3,3a,4,6b-hexahydro-1H-2,6a-diaza-cyclobut[cd]indene-6-carboxylic acid sodium salt (1:1)]	4	64
O=C(O)C1=C(/C=C/c2ccncc2)C[C@@H]2CN[C@@H]3C(=O)N1[C@H]23 [Example 51, (E)-(1aS,3aR,6bR)-1-Oxo-5-(2-pyridin-4-yl-vinyl)-1a,2,3,3a,4,6b-hexahydro-1H-2,6a-diaza-cyclobut[cd]indene-6-carboxylic acid trifluoroacetate (1:1.45)]	4	64
O=C(O)C1=C(/C=C2\CCN(C3CC3)C2=O)C[C@@H]2CN(C(=O)C(F)(F)F)[C@@H]3C(=O)N1[C@H]23 [Example 36, (E)-(1aS,3aR,6bR)-1-Oxo-5-[2-oxo-1-cyclopropyl-pyrrolidin-3-ylidenemethyl]-2-trifluoroacetyl-1a,2,3,3a,4,6b-hexahydro-1H-2,6a-diaza-cyclobut[cd]indene-6-carboxylic acid sodium salt (1:1)]	4	8

The next compounds have a lower MIC [1] than those just listed; values first:

MIC [1] [µg/mL]	MIC [2] [µg/mL]	Compound
2	8	CC(=O)N1C[C@H]2CC(/C=C/c3cccnc3)=C(C(=O)O)N3C(=O)[C@@H]1[C@@H]23 [Example 62, (E)-(1aS,3aR,6bR)-2-Acetyl-1-oxo-5-(2-pyridin-3-yl-vinyl)-1a,2,3,3a,4,6b-hexahydro-1H-2,6a-diaza-cyclobut[cd]indene-6-carboxylic acid sodium salt (1:1)]
1	4	O=CN1C[C@H]2CC(/C=C/c3ccccn3)=C(C(=O)O)N3C(=O)[C@@H]1[C@@H]23 [Example 56, (E)-(1aS,3aR,6bR)-2-Formyl-1-oxo-5-(2-pyridin-2-yl-vinyl)-1a,2,3,3a,4,6b-hexahydro-1H-2,6a-diaza-cyclobut[cd]indene-6-carboxylic acid sodium salt (1:1)]
1	32	CC(=O)N1C[C@H]2CC(/C=C/c3ccncc3)=C(C(=O)O)N3C(=O)[C@@H]1[C@@H]23 [Example 59, (E)-(1aS,3aR,6bR)-2-Acetyl-1-oxo-5-(2-pyridin-4-yl-vinyl)-1a,2,3,3a,4,6b-hexahydro-1H-2,6a-diaza-cyclobut[cd]indene-6-carboxylic acid sodium salt (1:1)]
0.25 (≈ 0.512 µM)	8 (≈ 16.4 µM)	CC(=O)N1C[C@H]2CC(/C=C/c3ccc[n+](CC(=O)Nc4ccc(O)cc4)c3)=C(C(=O)[O-])N3C(=O)[C@@H]1[C@@H]23 [Example 70, (E)-(1aS,3aR,6bR)-2-Acetyl-5-[2-[1-[(4-hydroxyphenylcarbamoyl)-methyl]-pyridin-1-ium-3-yl)-vinyl]-1-oxo-1a,2,3,3a,4,6b-hexahydro-1H-2,6a-diaza-cyclobut[cd]indene-6-carboxylate]

From patent US6218379A, “Tricyclic carbacephems” (Hoffmann-la Roche Inc., priority 1996, dated 2001)
